Assay results: patent US6933321B2, “Antiandrogenic biphenyls” (Endorecherche, Inc., priority 2002, dated 2005)
Where two headings read alike, the source gives them in different places.

Experiments:
[1] = test system: Shionogi mouse mammary carcinoma cells; assay: Antiandrogenic activity on DHT-stimulated Shionogi mouse mammary carcinoma cell number; format: cell-based; conditions: for A = Ki OH-Flu/Ki compound: ratio of Ki of hydroxyflutamide versus tested compound, higher values preferable
[2] = test system: ear sebaceous glands in the male hamster; assay: Topical antiandrogenic activity, ear sebaceous glands model in the male hamster; format: in vivo, Golden Syrian hamster; conditions: Mesocricetus auratus, 336 h, topical on left pinna, area of sebaceous glands of left ear, read-out: Ear Area Inhibition. Vs Control (%); for inhibition in vivo at 0.03 mg: dose 30 μg daily for 14 days; for inhibition in vivo at 0.01 mg: dose 10 μg daily for 14 days
From the text: • Column 2 represent the daily dose for 14 days of tested compound dissolved in ten μl solution of acetone:ethanol:propylene Glycol (1:1:2; v:v:v) applied onto a region between the two cartilage ridges of the ventral surface of left pinna. • Column 3 represents the percentage of inhibition of the area of the sebaceous glands of the left ear of the treated animals versus the area of the sebaceous glands of the left ear of the control animals.
C—In vivo Assessment of Topical Antiandrogenic Activity
The antiandrogenic activity of compounds for topical use was determined using the ear sebaceous glands model in the male hamster.
Male Golden Syrian Hamsters (SYR) of 110-120 g were obtained from Harlan Sprague-Dawley (Madison, USA) and housed up to 2 per plastic cage in a temperature (22±3° C.) and light (12 h light/day, lights on at 7h15)-controlled environment. The hamsters were fed with Certified Rodent Diet 5002 (pellet) and had access to tap water ad libitum. The animals were acclimatized for at least five days prior to beginning the study. Animals were randomly assigned to groups of eight hamsters. One group of hamsters were castrated under isoflurane-induced anesthesia on the day of dosing initiation (SD 1) and used as control group.
To evaluate the antiandrogenic activity, the tested compounds were applied topically on the inner part of the left ear, once daily, for 14 days. […] For animals of the castrated and intact control groups, one ten-μL vehicle was applied onto the left ear. No solution was applied on the right ear.
On Study Day 15, the hamsters were euthanized by cervical dislocation under isoflurane anesthesia. The left and right ears were collected attached together by the head skin, flat fixed on a paper and then immersed in 10% neutral buffered formalin. Punctures making a circular hole of 6 mm were made on the flat fixed ear in the region where the solution has been applied. These punch-made specimens were collected from each ear. Using a scalpel blade, the collected 6 mm round ear specimens were cut in the middle between the two cartilage ridges. The two equal parts of the ear round specimens were embedded in paraffin. After processing the tissue, the two parts were vertically embedded parallel to each other in such a way that the flat 6 mm area was facing out. From each paraffin block, one section (5 μm thick) was cut and collected on a glass slide. Thus, each slide contained two elongated sections of 6 mm length. Slides were stained with hematoxylin and eosin.
Using the video camera and the lens number X5 of the light microscope, the resulting field appearing on the screen has a length of 0.953 mm. When the first 6 mm long section was examined from the left to the right, the first and second fields were ignored and the third and fourth fields were captured for analysis by the image analyzer. Each field has the length of 0.953 mm. With the help of the screen mouse, the sebaceous glands within the whole field length (0.953 mm) were marked. Also, an area having the length of the whole field and the height between stratum granulosum and the upper edge of the cartilage was drawn.
The total area of the sebaceous glands (μm^2) in each examined field was calculated by the Image Analyser. We also measured the total area, which has the length of 0.953 mm and the height between stratum granulosum and the cartilage. In addition, the percentage of the area occupied by the glands was obtained. Thus, for each ear, two sections were cut and two fields from each section were analyzed. The total of the four readings was averaged and the mean standard error of the mean was calculated by the image analyzer. The results were expressed in μm^2 as the total surface of glands per field and also as percentage of the area occupied by the glands in the tissue.

[3] = Mus musculus, inhibition of DHT-stimulated Shionogi cell number, 10-12 days, read-out: Antiandrogenic activity IC50
[4] = inhibition of DHT-stimulated Shionogi cell number
[5] = Mus musculus, read-out: Antiandrogenic activity IC50 (nM)

N#Cc1ccc(-c2cccc(C(O)C(F)(F)F)c2)cc1C(F)(F)F (centres unmarked) [EM-4265]
IC50 [1, 3]: 116 nM
A = Ki OH-Flu/Ki compound [1, 4]: 0.7
inhibition in vivo at 0.03 mg ([2]; topical): 0%

N#Cc1ccc(-c2cc(F)ccc2F)cc1C(F)(F)F [EM-4046]
IC50 [1, 3]: > 500 nM
A = Ki OH-Flu/Ki compound [1, 4]: <0.2
inhibition in vivo at 0.03 mg ([2]; topical): 5%

N#Cc1ccc(-c2c(F)cccc2F)cc1Cl [EM-4977, 3-chloro-2′,6′-difluoro-biphenyl-4-carbonitrile]
IC50 [1, 5]: 12.8 nM
A = Ki OH-Flu/Ki compound [1, 4]: 12
inhibition in vivo at 0.001 mg ([2]; topical, dose 1 μg daily for 14 days): 25.9%
inhibition in vivo at 0.003 mg ([2]; topical, dose 3 μg daily for 14 days): 48%
inhibition in vivo at 0.01 mg ([2]; topical): 73%

N#Cc1ccc(-c2ccc(F)cc2C(=O)Nc2ccc(Cl)cc2)cc1C(F)(F)F [EM-4863]
IC50 ([1]; inhibition of DHT-stimulated Shionogi cell number, 10-12 days, read-out: Antiandrogenic activity IC50): 161 nM
A = Ki OH-Flu/Ki compound [1, 4]: 0.3
inhibition in vivo at 0.03 mg [2]: 21%

COc1cc(F)ccc1-c1ccc(C#N)c(C(F)(F)F)c1 [EM-4068]
IC50 [1, 5]: 96 nM
A = Ki OH-Flu/Ki compound [1, 4]: 0.9
inhibition in vivo at 0.03 mg ([2]; topical): 15%

COc1ccc(-c2ccc(C#N)c(C(F)(F)F)c2)c(F)c1 [EM-4174]
IC50 [1, 5]: 77 nM
A = Ki OH-Flu/Ki compound [1, 4]: 2.1
inhibition in vivo at 0.01 mg ([2]; topical): 86%

COc1ccc(-c2ccc(C#N)c(C(F)(F)F)c2)cc1Br [EM-4080]
IC50 [1, 3]: 102 nM
A = Ki OH-Flu/Ki compound [1, 4]: 0.6
inhibition in vivo at 0.03 mg ([2]; topical): 5%

COc1ccc(-c2ccc(C#N)c(C(F)(F)F)c2)cc1F [EM-4057]
IC50 [1, 5]: 84 nM
A = Ki OH-Flu/Ki compound [1, 4]: 1.2
inhibition in vivo at 0.01 mg ([2]; topical): 64%

COc1ccc(-c2c(F)cc(F)cc2F)cc1C(F)(F)F [EM-4833]
IC50 [1, 3]: > 500 nM
A = Ki OH-Flu/Ki compound [1, 4]: <0.2

N#Cc1ccc(-c2cc(NC(=O)c3ccc(Cl)cc3)c(F)cc2C(N)=O)cc1C(F)(F)F [EM-5003]
IC50 [1, 3]: > 500 nM
A = Ki OH-Flu/Ki compound [1, 4]: <0.2

COc1ccc(-c2ccc(F)cc2F)cc1Br [EM-4871]
IC50 [1, 3]: > 500 nM
A = Ki OH-Flu/Ki compound [1, 4]: <0.2

CNC(=O)c1cc(F)ccc1-c1ccc(C#N)c(C(F)(F)F)c1 [EM-4961]
IC50 [1, 3]: > 500 nM
A = Ki OH-Flu/Ki compound [1, 4]: <0.2

N#Cc1ccc(-c2ccc(F)cc2C(=O)Nc2ccccc2)cc1C(F)(F)F [EM-4864]
IC50 [1, 5]: > 500 nM
A = Ki OH-Flu/Ki compound [1, 4]: <0.2

N#Cc1ccc(-c2ccc(F)c(F)c2)cc1C(F)(F)F [EM-4047]
IC50 [1, 5]: > 100 nM
A = Ki OH-Flu/Ki compound [1, 4]: <1

N#Cc1cccc(-c2ccc(C#N)c(C(F)(F)F)c2)c1 [EM-3729]
IC50 [1, 3]: > 500 nM
A = Ki OH-Flu/Ki compound [1, 4]: <0.2

COc1ccc(-c2ccc(C#N)c(C(F)(F)F)c2)c(Cl)c1 [EM-4190]
IC50 [1, 3]: 162 nM
A = Ki OH-Flu/Ki compound [1, 4]: 0.9

N#Cc1ccc(-c2cc(F)c(F)c(F)c2)cc1C(F)(F)F [EM-4116]
IC50 [1, 3]: > 500 nM
A = Ki OH-Flu/Ki compound [1, 4]: <0.2

N#Cc1ccc(-c2ccc(C#N)c(C(F)(F)F)c2)c(F)c1 [EM-4189]
IC50 [1, 3]: 132 nM
A = Ki OH-Flu/Ki compound [1, 4]: 1.1

COc1ccc(-c2ccc(C#N)c(C(F)(F)F)c2)cc1 [EM-3394]
IC50 [1, 5]: 49.5 nM
A = Ki OH-Flu/Ki compound [1, 4]: 1.1

CSc1ccc(NC(=O)c2cc(F)ccc2-c2ccc(C#N)c(C(F)(F)F)c2)cc1 [EM-5082]
IC50 [1, 3]: > 500 nM
A = Ki OH-Flu/Ki compound [1, 4]: <0.2

N#Cc1ccc(-c2ccc(F)cc2C(=O)Nc2ccc(F)cc2)cc1C(F)(F)F [EM-5018]
IC50 [1, 3]: > 500 nM
A = Ki OH-Flu/Ki compound [1, 4]: <0.2

N#Cc1ccc(-c2ccc(F)cc2C(N)=O)cc1Cl [EM-4849]
IC50 [1, 3]: > 500 nM
A = Ki OH-Flu/Ki compound [1, 4]: <0.2

CCCCN(CCCC)C(=O)c1cc(F)ccc1-c1ccc(C#N)c(C(F)(F)F)c1 [EM-4844]
IC50 [1, 3]: > 500 nM
A = Ki OH-Flu/Ki compound [1, 4]: <0.2

CC(O)(c1ccc(-c2ccc(C#N)c(C(F)(F)F)c2)cc1)C(F)(F)F (centres unmarked) [EM-4026]
IC50 [1, 3]: > 500 nM
A = Ki OH-Flu/Ki compound [1, 4]: <0.2

N#Cc1ccc(-c2ccc(Br)cc2C(F)(F)F)cc1[N+](=O)[O-] [EM-4792]
IC50 [1, 3]: > 500 nM
A = Ki OH-Flu/Ki compound [1, 4]: <0.2

N#Cc1ccc(-c2ccc(C#N)c(C(F)(F)F)c2)c(Cl)c1 [EM-4205]
IC50 [1, 5]: 52 nM
A = Ki OH-Flu/Ki compound [1, 4]: 3.0

N#Cc1ccc(-c2c(F)cc(F)cc2C(F)(F)F)cc1C(F)(F)F [EM-5004]
IC50 [1, 3]: > 500 nM
A = Ki OH-Flu/Ki compound [1, 4]: <0.2

N#Cc1ccc(-c2c(NC(=O)c3ccc(Cl)cc3)cc(F)cc2C(N)=O)cc1C(F)(F)F [EM-5094]
IC50 [1, 3]: > 500 nM
A = Ki OH-Flu/Ki compound [1, 4]: <0.2

N#Cc1ccc(-c2ccc(F)cc2C(=O)N2CCCCC2)cc1C(F)(F)F [EM-5020]
IC50 [1, 5]: > 500 nM
A = Ki OH-Flu/Ki compound [1, 4]: <0.2

N#Cc1ccc(-c2ccc(F)c(Cl)c2)cc1C(F)(F)F [EM-4216]
IC50 [1, 3]: > 500 nM
A = Ki OH-Flu/Ki compound [1, 4]: <0.2

N#Cc1ccc(-c2ccccc2F)cc1C(F)(F)F [EM-3976]
IC50 [1, 3]: > 500 nM
A = Ki OH-Flu/Ki compound [1, 4]: <0.2

COc1ccc(-c2ccc(C#N)cc2)cc1 [EM-3704]
IC50 [1, 3]: > 500 nM
A = Ki OH-Flu/Ki compound [1, 4]: <0.2

COc1ccc(-c2ccc(C#N)c(C(F)(F)F)c2)c(C(N)=O)c1 [EM-4905]
IC50 [1, 3]: > 500 nM
A = Ki OH-Flu/Ki compound [1, 4]: <0.2

N#Cc1ccc(-c2ccc(F)cc2)cc1 [EM-3978]
IC50 [1, 3]: > 500 nM
A = Ki OH-Flu/Ki compound [1, 4]: <0.2

CS(=O)(=O)c1cc(-c2ccc(F)cc2F)ccc1C#N [EM-4292]
IC50 [1, 3]: > 500 nM
A = Ki OH-Flu/Ki compound [1, 4]: <0.2

C[C@@](O)(c1cccc(-c2ccc(C#N)c(C(F)(F)F)c2)c1)C(F)(F)F [EM-4264]
IC50 [1, 5]: 54 nM
A = Ki OH-Flu/Ki compound [1, 4]: 1.6

N#Cc1ccc(-c2ccccc2C(F)(F)F)cc1C(F)(F)F [EM-4034]
IC50 [1, 3]: > 500 nM
A = Ki OH-Flu/Ki compound [1, 4]: <0.2

N#Cc1ccc(-c2ccc(C#N)c(Cl)c2)cc1 [EM-4281]
IC50 [1, 3]: 145 nM
A = Ki OH-Flu/Ki compound [1, 4]: 0.6

CCN(CC)C(=O)c1ccc(-c2ccc(C#N)c(C(F)(F)F)c2)cc1 [EM-3987]
IC50 [1, 3]: > 500 nM
A = Ki OH-Flu/Ki compound [1, 4]: <0.2

CN(C)CCN(C)C(=O)c1cc(F)ccc1-c1ccc(C#N)c(C(F)(F)F)c1 [EM-4980]
IC50 [1, 3]: > 500 nM
A = Ki OH-Flu/Ki compound [1, 4]: <0.2

N#Cc1ccc(-c2c(F)cccc2F)cc1C(F)(F)F [EM-4004]
IC50 [1, 3]: > 500 nM
A = Ki OH-Flu/Ki compound [1, 4]: <0.2
inhibition in vivo at 0.01 mg ([2]; topical): 60%

N#Cc1ccc(-c2ccc(F)cc2[N+](=O)[O-])cc1C(F)(F)F [EM-4234]
IC50 [1, 5]: 43.2 nM
A = Ki OH-Flu/Ki compound [1, 4]: 3.2

COc1ccc(Cl)cc1-c1ccc(C#N)c(C(F)(F)F)c1 [EM-3747]
IC50 [1, 3]: > 500 nM
A = Ki OH-Flu/Ki compound [1, 4]: <0.2

CN(C)C(=O)c1cc(F)ccc1-c1ccc(C#N)c(C(F)(F)F)c1 [EM-4865]
IC50 [1, 3]: > 500 nM
A = Ki OH-Flu/Ki compound [1, 4]: <0.2

N#Cc1ccc(-c2ccc(F)cc2C(N)=O)cc1C(F)(F)F [EM-4171, 4′-Cyano-4-fluoro-3′-trifluoromethyl-biphenyl-2-carboxylic acid amide]
IC50 [1, 3]: 943 nM
A = Ki OH-Flu/Ki compound [1, 4]: 0.2

N#Cc1ccc(-c2ccc(F)cc2C(=O)Nc2ccc(F)cc2F)cc1C(F)(F)F [EM-5038]
IC50 [1, 3]: > 500 nM
A = Ki OH-Flu/Ki compound [1, 4]: <0.2

CCNC(=O)c1cc(F)ccc1-c1ccc(C#N)c(C(F)(F)F)c1 [EM-4866]
IC50 [1, 3]: > 500 nM
A = Ki OH-Flu/Ki compound [1, 4]: <0.2

N#Cc1ccc(-c2ccc(F)c(C(F)(F)F)c2)cc1 [EM-4249]
IC50 [1, 3]: > 500 nM
A = Ki OH-Flu/Ki compound [1, 4]: <0.2
